Measurements reported in patent publication US10584132B2, “SHMT inhibitors” (The Trustees of Princeton University, priority 2016, dated 2020).

Assays:
LogP Value = format: physicochemical
HCT-116 WT cells = test: Cell growth assay (resazurin), HCT-116 wild type, with or without formate; format: cell-based, human; conditions: for rescue of effects on cell growth by addition of formate: HCT-116, formate
Description: (§1) The described cell lines for Examples 8 and 9 are cultured in 96-well plates in Dulbecco's modified eagle media (DMEM) without pyruvate (CELLGRO) with 10% dialysed fetal bovine serum (Invitrogen) in 5% CO2 at 37° C. Approximately 2,500 cells are plated in each well in 90 uL of media. After 24 hours cells are treated with various concentrations of inhibitor (time=0 hours), with or without formate. Growth was assessed at multiple time points (time=0, 24, 48, 72 hours) through measurement of fluorescence at 595 nm (excitation at 535 nm) on a BioTek micro titer plate reader after incubation with resazurin (0.01 mg/mL for 1.5 hours). IC50 curves are generated from percent inhibition of growth at 72 hours.

HCT-116 ΔSHMT2 cells = test: Cell growth assay, HCT-116 SHMT2 deletion (knock-out) cells; format: cell-based, human
Description: as §1
Clonal deletion cell lines of SHMT1, SHMT2, and SHMT1/2 were generated from the human colorectal carcinoma cell line HCT-116. Paired Cas9 nickase (Cas9n) containing constructs that encoded single-guide RNA sequences targeting SHMT1 or 2 were transiently transfected into cells, and mutant colonies from single clones were picked as described in Ducker et al., (2016) Reversal of Cytosolic One-Carbon Flux Compensates for Loss of the Mitochondrial Folate Pathway, Cell Metab 23, 1140-1153. SHMT1 deletion had no effect on cell growth either in cell culture or as subcutaneous xenografts in nude mice. In contrast, SHMT2 deletion cells grew slower in culture and as xenografts (FIG. 8A).

Liver microsome assay = format: in vitro ADME; conditions: pooled male mouse liver microsomes, 2 μM
Description: The following master solution was prepared before compound addition:
Two separate experiments were performed as follows: a) With Cofactors (NADPH and UDPGA): 40 μL of 10 mM NADPH and 40 μL of 20 mM UDPGA were added to the incubations. The final concentrations of microsomes, NADPH and UDPGA were 0.5 mg/mL, 1 mM and 2 mM, respectively. b) Without Cofactors (NADPH and UDPGA): 10 μL of 20 mg/mL liver microsomes and 80 μL of ultra-pure water were added to the incubations. The final concentration of microsomes was 0.5 mg/mL. The mixture was pre-warmed at 37° C. for 5 minutes.
The reaction was started with the addition of 4 μL of 200 μM control compound or test compound solution. Verapamil was used as positive control in this study. The final concentration of test compound or control compound was 2 μM. The incubation solution was incubated in water bath at 37° C. Aliquots of 50 μL were taken from the reaction solution at 0.5, 5, 15, 30, 45 and 60 minutes. The reaction was stopped by the addition of 5 volumes of cold acetonitrile with IS (100 nM alprazolam, 200 nM caffeine and 100 nM tolbutamide). Samples were centrifuged at 3,220 g for 40 minutes. Aliquot of 100 μL of the supernatant was mixed with 100 μL of ultra-pure H2O and then used for LC-MS/MS analysis. The in vitro half-life (in vitro t1/2) was determined from the slope value of the LC-MS signal of the test compound.

human SHMT2 = human SHMT2 (Homo sapiens (Human), UniProt P34897); test: SHMT2 in vitro enzymatic assay (coupled with excess MTHFD2, NADH absorption at 340 nm); format: biochemical
Description: (§2) For the SHMT1 and SHMT2 in vitro enzymatic assays, the rate of 5,10-methylene tetrahydrofolate formation catalyzed by SHMT1/2 was indirectly evaluated by coupling with excess MTHFD2, which converts NAD+ to NADH allowing for reaction monitoring by absorption at 340 nm. […] Inhibition of initial reaction velocity was determined by adding various inhibitors at different concentrations and monitored as described. IC50 may be calculated based on this assay.

human SHMT1 = human SHMT1 (Homo sapiens (Human), UniProt P34896); test: SHMT1 in vitro enzymatic assay (coupled with excess MTHFD2, NADH absorption at 340 nm); format: biochemical
Description: as §2

8988T cells = test: Growth of pancreatic cancer cell line 8988T; format: cell-based, human
Su-DHL-4 cells [1] = test: Apoptosis by flow cytometry (Annexin V surface staining), Su-DHL-4; format: cell-based, human; conditions: for apoptotic fraction of cells: 24 hours
Excerpt: Apoptosis was enhanced by co-treatment with formate. In contrast, as expected, formate rescued Jurkat E6-1 leukemia cells from apoptosis (FIG. 11C). Without wishing to be bound by theory, it is hypothesized that the failure of formate to rescue growth in the DLBCL cell lines is due to a requirement for both glycine and 1C units made by SHMT in these cells. When glycine is limiting, formate can enhance the cytotoxicity of SHMT inhibition. […] Mechanistically, by supplying 5,10-methylene-THF, formate may drives residual SHMT enzymatic function in the […] direction.
In contrast, cell growth is further decreased in Su-DHL4 cells by addition of formate. This can be further exacerbated by removal of glycine from the media. […] Using flow cytometry, apoptosis of Su-DHL4 cells were studied with AnnexinV surface staining (FIGS. 12D and 12E).

Su-DHL-4 cells [2] = test: Growth of Su-DHL-4 cells in RPMI; format: cell-based, human; conditions: for cell growth (or death) over 48 h: Su-DHL-4, 5 μM
Description: Cells were stained with propidium iodide and FITC conjugated Annexin V. 10,000 events shown. […] All conditions included at least normal media glycine (10 mg/L) (mean±SD, n=3).
Co-culture with 1 mM formate restores nucleotide levels selectively in Jurkat cells (mean±SD, n=3-6). […] Note the low uptake in Su-DHL-4 cells (gly=glycine, GSH=glutathione) (mean±SD, n=3). […] The SHMT reaction makes two products, 5,10-methyleneTHF and glycine. When SHMT is inhibited, exogenous formate can be incorporated into the 1C cycle whereas in B-cells poor glycine uptake limits the ability of extracellular glycine to rescue. Strategies that further stress glycine availability augment the efficacy of SHMT inhibition.

Chain of human SHMT1 (P34896 whole entry): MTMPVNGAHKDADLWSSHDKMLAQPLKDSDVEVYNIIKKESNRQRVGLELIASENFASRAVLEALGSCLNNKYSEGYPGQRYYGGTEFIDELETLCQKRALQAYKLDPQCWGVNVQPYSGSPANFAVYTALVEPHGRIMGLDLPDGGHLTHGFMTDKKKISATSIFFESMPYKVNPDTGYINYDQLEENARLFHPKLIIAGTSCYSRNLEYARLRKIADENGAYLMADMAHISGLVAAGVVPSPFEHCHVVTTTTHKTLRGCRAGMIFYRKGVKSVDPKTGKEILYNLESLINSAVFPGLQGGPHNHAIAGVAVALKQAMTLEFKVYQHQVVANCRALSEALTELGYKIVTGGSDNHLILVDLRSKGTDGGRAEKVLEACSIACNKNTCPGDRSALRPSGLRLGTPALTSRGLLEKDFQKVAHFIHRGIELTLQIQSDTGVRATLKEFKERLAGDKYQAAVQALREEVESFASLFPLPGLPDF
Chain of human SHMT2 (P34897 30-504): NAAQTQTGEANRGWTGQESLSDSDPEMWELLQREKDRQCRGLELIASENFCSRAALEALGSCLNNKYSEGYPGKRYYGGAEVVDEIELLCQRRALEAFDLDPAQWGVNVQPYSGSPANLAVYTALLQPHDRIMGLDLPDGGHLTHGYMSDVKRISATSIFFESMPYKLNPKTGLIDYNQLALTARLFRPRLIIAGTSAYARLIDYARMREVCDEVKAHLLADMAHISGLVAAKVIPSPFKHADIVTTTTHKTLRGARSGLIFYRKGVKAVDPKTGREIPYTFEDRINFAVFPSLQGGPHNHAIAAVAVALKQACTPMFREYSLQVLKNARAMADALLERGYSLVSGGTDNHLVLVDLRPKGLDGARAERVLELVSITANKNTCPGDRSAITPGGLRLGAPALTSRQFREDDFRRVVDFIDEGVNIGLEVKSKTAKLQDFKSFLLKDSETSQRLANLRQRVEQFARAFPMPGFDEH

For Cc1n[nH]c2c1C(c1cc(C#CCCC(=O)O)cc(C(F)(F)F)c1)(C(C)C)C(C#N)=C(N)O2 (centres unmarked) [Compound 4], the logP (LogP Value) was 3.56.

In the case of Cc1n[nH]c2c1C(c1cc(C#CCCCN)cc(C(F)(F)F)c1)(C(C)C)C(C#N)=C(N)O2 (centres unmarked) [Compound 8], the logP (LogP Value) is reported as 2.72.

Cc1n[nH]c2c1C(c1cc(C#CCCC(N)=O)cc(C(F)(F)F)c1)(C(C)C)C(C#N)=C(N)O2 (centres unmarked) [Compound 11] gave a logP (LogP Value) of 3.22.

With Cc1n[nH]c2c1C(c1cc(C#CCCCO)cc(C(F)(F)F)c1)(C(C)C)C(C#N)=C(N)O2 (centres unmarked) [Compound 61, 6-amino-4-(3-(5-hydroxypent-1-yn-1-yl)-5-(trifluoromethyl)phenyl)-4-isopropyl-3-methyl-1,4-dihydropyrano[2,3-c]pyrazole-5-carbonitrile] the “inhibition of growth (proliferation) of HCT116 cells” value (HCT-116 WT cells; native HCT116) was “inhibited growth” and the “inhibition of growth of SHMT2 knock-out HCT116 cells versus native” value (HCT-116 ΔSHMT2 cells) was “increased potency”.

Cc1n[nH]c2c1C(c1cc(C#N)cc(C#CCCC(=O)O)c1)(C(C)C)C(C#N)=C(N)O2 (centres unmarked) [Compound 68] showed a logP (LogP Value) of 2.37.

Work on Cc1n[nH]c2c1C(c1cc(C#CCCC(=O)N[C@@H](CCC(=O)O)C(=O)O)cc(C(F)(F)F)c1)(C(C)C)C(C#N)=C(N)O2 (some centres unmarked) [Compound 69] yielded a logP (LogP Value) of 2.49.

Work on Cc1n[nH]c2c1C(c1cc(C#N)cc(C#CCCCO)c1)(C(C)C)C(C#N)=C(N)O2 (centres unmarked) [Compound 71] yielded a logP (LogP Value) of 2.89.

With Cc1n[nH]c2c1C(c1cc(C#CCCCO)cc(CO)c1)(C(C)C)C(C#N)=C(N)O2 (centres unmarked) [Compound 74] the “CLint (replicate 2)” value (Liver microsome assay) was 67.96 μL/min/mg protein.

In the case of Cc1n[nH]c2c1C(c1cccc(Cl)c1)(C1CCC1)C(C#N)=C(N)O2 (centres unmarked) [HK-3], the IC50 (human SHMT2) is reported as 1190 nM.

COc1cccc(C2(C(C)C)C(C#N)=C(N)Oc3[nH]nc(C)c32)c1 (centres unmarked) [HK-6] gave an IC50 (human SHMT2) of 4580 nM.

With Cc1n[nH]c2c1C(c1cccc(Cl)c1)(C(C)C)C(C#N)=C(N)O2 (centres unmarked) [HK-7] the IC50 (human SHMT2) was 400 nM.

Work on COc1cc(Cl)cc(C2(C3CCC3)C(C#N)=C(N)Oc3[nH]nc(C)c32)c1 (centres unmarked) [HK-9] yielded an IC50 (human SHMT2) of 3460 nM.

With Cc1n[nH]c2c1C(c1cc(Cl)cc(Cl)c1)(C1CCC1)C(C#N)=C(N)O2 (centres unmarked) [HK-10] the IC50 (human SHMT2) was 1190 nM and the IC50 (human SHMT1) was 593 nM.

For Cc1n[nH]c2c1C(c1cc(Cl)cc(C(F)(F)F)c1)(C1CCC1)C(C#N)=C(N)O2 (centres unmarked) [HK-11], the IC50 (human SHMT2) was 100 nM.

Molecule Cc1n[nH]c2c1C(c1cc(C(F)(F)F)cc(C(F)(F)F)c1)(C1CCC1)C(C#N)=C(N)O2 (centres unmarked) [HK-12] has an IC50 (human SHMT2) of 168 nM and an IC50 (human SHMT1) of 206 nM.

Work on COc1cc(Cl)cc(C2(C(C)C)C(C#N)=C(N)Oc3[nH]nc(C)c32)c1 (centres unmarked) [HK-13] yielded an IC50 (human SHMT2) of 500 nM.

Work on Cc1n[nH]c2c1C(c1cc(Cl)cc(Cl)c1)(C(C)C)C(C#N)=C(N)O2 (centres unmarked) [HK-14] yielded an IC50 (human SHMT2) of 131 nM and an IC50 (human SHMT1) of 67 nM.

With Cc1n[nH]c2c1C(c1cc(Cl)cc(C(F)(F)F)c1)(C(C)C)C(C#N)=C(N)O2 (centres unmarked) [HK-15] the IC50 (human SHMT2) was 35 nM and the IC50 (human SHMT1) was 20 nM.

For Cc1n[nH]c2c1C(c1cc(N3CCCC3)cc(C(F)(F)F)c1)(C(C)C)C(C#N)=C(N)O2 (centres unmarked) [HK-X1], the IC50 (human SHMT2) was 66 nM, the IC50 (human SHMT1) was 13 nM and the “rescue of effects on cell growth by addition of formate” value (HCT-116 WT cells) was “rescued”.

For Cc1n[nH]c2c1C(c1cc(CO)cc(-c3ccccc3)c1)(C(C)C)C(C#N)=C(N)O2 (centres unmarked) [HK-X2], the “rescue of effects on cell growth by addition of formate” value (HCT-116 WT cells) was “rescued”, the “concentration that impairs cell growth” value (8988T cells) was less than 100 nM and the “apoptotic fraction of cells” value (Su-DHL-4 cells [1]; Su-DHL4, inhibitor alone) was 8%. The “apoptotic fraction of cells” value (Su-DHL-4 cells [1]; Su-DHL4, inhibitor in the presence of formate) was 15%, the “apoptosis measured by Annexin V surface staining” value (Su-DHL-4 cells [1]; Su-DHL-4, co-treatment with formate) was “enhanced” and the “apoptosis measured by Annexin V surface staining” value (Su-DHL-4 cells [1]; Su-DHL-4, inhibitor alone) was “induced apoptosis”. For the same molecule, the IC70 (Su-DHL-4 cells [2]; SU-DHL4, RPMI) was 5000 nM, the “cell growth (or death) over 48 h” value (Su-DHL-4 cells [2]; formate (1 mM) added) was “fully cytostatic” and the “cell growth (or death) over 48 h” value (Su-DHL-4 cells [2]; formate added and glycine removed) was “significant cell death”.
